Assay results from ChEMBL document CHEMBL1201862, “PubChem BioAssay data set” (2004).
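Cells were grown in 96-well plates and exposed to each compound for 48 hours at five concentrations; endpoints were interpolated linearly between bracketing concentrations, or set to the highest concentration if not reached. GI50: concentration for 50% inhibition of growth.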 The source made the active and inactive calls. No stated cut-off is given here; in the data, active = GI50 up to about 1.1 µM and inactive = higher.

Columns and labels:
Experiment in all cases: NCI tumour cell line growth inhibition, 48 h
CAKI-1 = system: CAKI-1
OVCAR-5 = system: OVCAR-5
LOX IMVI = system: LOX IMVI
HOP-62 = system: HOP-62
A549 = system: A549
SK-OV-3 = system: SK-OV-3
M14 = system: M14
KM-20L2 = system: KM-20L2
TK-10 = system: TK-10
OVCAR-3 = system: OVCAR-3
XF498 = system: XF498
NCI-H522 = system: NCI-H522
SNB-75 = system: SNB-75
SNB-19 = system: SNB-19
IGROV-1 = system: IGROV-1
M19-MEL = system: M19-MEL
UACC-62 = system: UACC-62
HT-29 = system: HT-29
786-0 = system: 786-0
SK-MEL-28 = system: SK-MEL-28
NCI-H23 = system: NCI-H23
Malme-3M = system: Malme-3M
DMS-114 = system: DMS-114
ACHN = system: ACHN
HOP-18 = system: HOP-18
SK-MEL-2 = system: SK-MEL-2
LXFL 529 = system: LXFL 529
HOP-92 = system: HOP-92
CCRF-CEM = system: CCRF-CEM
U-251 = system: U-251
OVCAR-4 = system: OVCAR-4
SN12C = system: SN12C
RXF 631 = system: RXF 631
RXF 393 = system: RXF 393
SF-295 = system: SF-295
MOLT-4 = system: MOLT-4
HL-60 = system: HL-60
HCT-15 = system: HCT-15
SW-620 = system: SW-620
DMS-273 = system: DMS-273
A498 = system: A498
SF-268 = system: SF-268
EKVX = system: EKVX
UO-31 = system: UO-31
NCI-H460 = system: NCI-H460
UACC-257 = system: UACC-257
RPMI-8226 = system: RPMI-8226
HCC 2998 = system: HCC 2998
KM12 = system: KM12
K562 = system: K562
SK-MEL-5 = system: SK-MEL-5
SF-539 = system: SF-539
NCI-H226 = system: NCI-H226
OVCAR-8 = system: OVCAR-8
COLO 205 = system: COLO 205
HCT-116 = system: HCT-116
SNB-78 = system: SNB-78
DLD-1 = system: DLD-1

With `CC(C)N1CC2CC(CN(C(=O)c3ccccc3)C2)C1.[O-][Cl+3]([O-])([O-])O` the GI50 (CAKI-1) was > 100 µM (inactive), the GI50 (OVCAR-5) was > 100 µM (inactive) and the GI50 (LOX IMVI) was > 100 µM (inactive). For the same compound, the GI50 (HOP-62) was > 100 µM (inactive), the GI50 (A549) was > 100 µM (inactive) and the GI50 (SK-OV-3) was > 100 µM (inactive). For the same compound, the GI50 (M14) was > 100 µM (inactive), the GI50 (KM-20L2) was > 100 µM (inactive) and the GI50 (TK-10) was > 100 µM (inactive). For the same compound, the GI50 (OVCAR-3) was > 100 µM (inactive), the GI50 (XF498) was > 100 µM (inactive) and the GI50 (NCI-H522) was > 100 µM (inactive). The GI50 (SNB-75) was > 100 µM (inactive), the GI50 (SNB-19) was > 100 µM (inactive) and the GI50 (IGROV-1) was > 100 µM (inactive). The GI50 (M19-MEL) was > 100 µM (inactive), the GI50 (UACC-62) was > 100 µM (inactive) and the GI50 (HT-29) was > 100 µM (inactive). The GI50 (786-0) was > 100 µM (inactive), the GI50 (SK-MEL-28) was > 100 µM (inactive) and the GI50 (NCI-H23) was > 100 µM (inactive). For the same compound, the GI50 (Malme-3M) was > 100 µM (inactive), the GI50 (DMS-114) was > 100 µM (inactive) and the GI50 (ACHN) was > 100 µM (inactive). For the same compound, the GI50 (HOP-18) was > 100 µM (inactive), the GI50 (SK-MEL-2) was > 100 µM (inactive) and the GI50 (LXFL 529) was > 100 µM (inactive). For the same compound, the GI50 (HOP-92) was > 100 µM (inactive), the GI50 (CCRF-CEM) was > 100 µM (inactive) and the GI50 (U-251) was > 100 µM (inactive). For the same compound, the GI50 (OVCAR-4) was > 100 µM (inactive), the GI50 (SN12C) was > 100 µM (inactive) and the GI50 (RXF 631) was > 100 µM (inactive). For the same compound, the GI50 (RXF 393) was > 100 µM (inactive), the GI50 (SF-295) was > 100 µM (inactive) and the GI50 (MOLT-4) was > 100 µM (inactive). For the same compound, the GI50 (HL-60) was > 100 µM (inactive), the GI50 (HCT-15) was over 100 µM and the GI50 (SW-620) was > 100 µM (inactive). For the same compound, the GI50 (DMS-273) was > 100 µM (inactive), the GI50 (A498) was > 100 µM (inactive) and the GI50 (SF-268) was > 100 µM (inactive). For the same compound, the GI50 (EKVX) was > 100 µM (inactive), the GI50 (UO-31) was > 100 µM (inactive) and the GI50 (NCI-H460) was > 100 µM (inactive). For the same compound, the GI50 (UACC-257) was > 100 µM (inactive), the GI50 (RPMI-8226) was > 100 µM (inactive) and the GI50 (HCC 2998) was > 100 µM (inactive). For the same compound, the GI50 (KM12) was > 100 µM (inactive), the GI50 (K562) was > 100 µM (inactive) and the GI50 (SK-MEL-5) was > 100 µM (inactive). For the same compound, the GI50 (SF-539) was > 100 µM (inactive), the GI50 (NCI-H226) was 72.9 µM (inactive) and the GI50 (OVCAR-8) was > 100 µM (inactive). The GI50 (COLO 205) was > 100 µM (inactive).
`[O-]/[N+](=C\c1ccccc1)[C@H](COCc1ccccc1)c1ccccc1` was tested, and the GI50 (HCT-116) was 40.8 µM (inactive), the GI50 (OVCAR-5) was > 100 µM (inactive) and the GI50 (LOX IMVI) was > 100 µM (inactive). For the same compound, the GI50 (HOP-62) was > 100 µM (inactive), the GI50 (A549) was 51.6 µM (inactive) and the GI50 (SK-OV-3) was > 100 µM (inactive). For the same compound, the GI50 (KM-20L2) was > 100 µM (inactive), the GI50 (TK-10) was > 100 µM (inactive) and the GI50 (OVCAR-3) was 27.6 µM (inactive). For the same compound, the GI50 (XF498) was 27.8 µM (inactive), the GI50 (NCI-H522) was 29.5 µM (inactive) and the GI50 (SNB-75) was 74.3 µM (inactive). For the same compound, the GI50 (SNB-19) was 59.8 µM (inactive), the GI50 (IGROV-1) was > 100 µM (inactive) and the GI50 (M19-MEL) was > 100 µM (inactive). For the same compound, the GI50 (HT-29) was 71 µM (inactive), the GI50 (786-0) was > 100 µM (inactive) and the GI50 (SK-MEL-28) was > 100 µM (inactive). For the same compound, the GI50 (NCI-H23) was 4.45 µM (inactive), the GI50 (Malme-3M) was > 100 µM (inactive) and the GI50 (DMS-114) was 54.1 µM (inactive). For the same compound, the GI50 (SNB-78) was 66.5 µM (inactive), the GI50 (ACHN) was 66.4 µM (inactive) and the GI50 (HOP-18) was 20.3 µM (inactive). For the same compound, the GI50 (SK-MEL-2) was 27.3 µM (inactive), the GI50 (LXFL 529) was > 100 µM (inactive) and the GI50 (HOP-92) was 24.8 µM (inactive). For the same compound, the GI50 (CCRF-CEM) was 50.6 µM (inactive), the GI50 (U-251) was 80.9 µM (inactive) and the GI50 (RXF 631) was > 100 µM (inactive). For the same compound, the GI50 (RXF 393) was 36.6 µM (inactive), the GI50 (SF-295) was 36 µM (inactive) and the GI50 (MOLT-4) was 36.5 µM (inactive). For the same compound, the GI50 (HL-60) was 25.2 µM (inactive), the GI50 (SW-620) was > 100 µM (inactive) and the GI50 (DMS-273) was 93.8 µM (inactive). For the same compound, the GI50 (A498) was > 100 µM (inactive), the GI50 (DLD-1) was > 100 µM (inactive) and the GI50 (SF-268) was 55.2 µM (inactive). For the same compound, the GI50 (EKVX) was 25.1 µM (inactive), the GI50 (UO-31) was 24.2 µM (inactive) and the GI50 (NCI-H460) was > 100 µM (inactive). The GI50 (UACC-257) was > 100 µM (inactive), the GI50 (RPMI-8226) was 30.2 µM (inactive) and the GI50 (HCC 2998) was > 100 µM (inactive). For the same compound, the GI50 (KM12) was 70.3 µM (inactive), the GI50 (K562) was 48.9 µM (inactive) and the GI50 (SK-MEL-5) was 63.1 µM (inactive). The GI50 (SF-539) was > 100 µM (inactive), the GI50 (OVCAR-8) was > 100 µM (inactive) and the GI50 (COLO 205) was > 100 µM (inactive).
